Literature values as cited in US20250032638A1, “Novel Cancer Treatments with TLR7/8 Agonists” (Ascendis Pharma Oncology Division A/S, priority 2021, published 2025).

Settings: resiquimod administered orally; systemic toxicity at higher doses (Journal of Hepatology 47 (2007) 174-182)

## CCOCc1nc2c(N)nc3ccccc3c2n1CC(C)(C)O [resiquimod]
  systemic concentration that was well tolerated: about 4 ng/mL
